In ChEMBL document CHEMBL3044689, “Synthesis and Rice-Blast Control Activity of Sulfonylamidines” (1992):

Experiments:
Assay type in all cases: functional
[1] = tested on: Pyricularia oryzae; experiment: Antifungal activity against Magnaporthe oryzae infected on compound treated rice seedlings at 500 ppm incubated for 24 hr in moist chamber followed by incubation for 5 days in greenhouse conditions
[2] = tested on: Pyricularia oryzae; experiment: Antifungal activity against Magnaporthe oryzae infected on compound treated rice seedlings at 7.8 ppm incubated for 24 hr in moist chamber followed by incubation for 5 days in greenhouse conditions
[3] = tested on: Pyricularia oryzae; experiment: Antifungal activity against Magnaporthe oryzae infected on compound treated rice seedlings at 125 ppm incubated for 24 hr in moist chamber followed by incubation for 5 days in greenhouse conditions
[4] = tested on: Pyricularia oryzae; experiment: Antifungal activity against Magnaporthe oryzae infected on compound treated rice seedlings at 31.3 ppm incubated for 24 hr in moist chamber followed by incubation for 5 days in greenhouse conditions

## CCSC1=NS(=O)(=O)c2ccccc2N1C
[1]
  Activity: 90%
[2]
  Activity: 0%
[3]
  Activity: 70%
[4]
  Activity: 30%

## Cc1ccc(S(=O)(=O)/N=C(/c2ccccc2)N(C)C)cc1
[1]
  Activity: 30%

## Cc1ccc(/C(=N/S(=O)(=O)c2ccc(C)cc2)N(C)C)cc1
[1]
  Activity: 70%

## COc1ccc(/C(=N/S(=O)(=O)c2ccc(C)cc2)N(C)C)cc1
[1]
  Activity: 70%

## Cc1ccc(S(=O)(=O)/N=C(/c2ccc(N(C)C)cc2)N(C)C)cc1
[1]
  Activity: 0%

## Cc1ccc(S(=O)(=O)/N=C(/c2ccc(Cl)cc2)N(C)C)cc1
[1]
  Activity: 0%

## Cc1ccc(S(=O)(=O)/N=C(/c2ccc([N+](=O)[O-])cc2)N(C)C)cc1
[1]
  Activity: 0%

## Cc1ccc(S(=O)(=O)/N=C(/c2ccc(Cl)c(Cl)c2)N(C)C)cc1
[1]
  Activity: 50%

## COC(=O)c1ccccc1/C(=C/S(=O)(=O)c1ccc(C)cc1)N(C)C
[1]
  Activity: 0%

## C/C(=N/S(=O)(=O)c1ccc(C)cc1)N(C)C
[1]
  Activity: 70%

## CCC/C(=N/S(=O)(=O)c1ccc(C)cc1)N(C)C
[1]
  Activity: 70%

## C/C=C/C(=N/S(=O)(=O)c1ccc(C)cc1)N(C)C
[1]
  Activity: 30%

## Cc1ccc(S(=O)(=O)/N=C(/CC(C)Br)N(C)C)cc1 (stereo not drawn)
[1]
  Activity: 30%

## CCCCCC/C(=N/S(=O)(=O)c1ccc(C)cc1)N(C)C
[1]
  Activity: 70%

## Cc1ccc(S(=O)(=O)/N=C(/C2CCCCC2)N(C)C)cc1
[1]
  Activity: 50%

## CO/C(=N/S(=O)(=O)c1ccc(C)cc1)N(C)C
[1]
  Activity: 0%

## CS/C(=N/S(=O)(=O)c1ccc(C)cc1)N(C)C
[1]
  Activity: 30%

## Cc1ccc(S(=O)(=O)N=C(N(C)C)N(C)C)cc1
[1]
  Activity: 30%

## CCOC(=O)/C(=N/S(=O)(=O)c1ccc(C)cc1)N(C)C
[1]
  Activity: 50%

## CCN(CC)/C(=N\S(=O)(=O)c1ccc(C)cc1)C(C)C
[1]
  Activity: 0%

## CCN(CC)/C(CC(C)C)=N\S(=O)(=O)c1ccc(C)cc1
[1]
  Activity: 0%

## CCN(CC)/C(=N\S(=O)(=O)c1ccc(C)cc1)C(C)(C)C
[1]
  Activity: 0%

## CCCC/C(=N/S(=O)(=O)c1ccc(C)cc1)N(CC)CC
[1]
  Activity: 70%

## CCCCC/C(=N/S(=O)(=O)c1ccc(C)cc1)N(CC)CC
[1]
  Activity: 90%
[2]
  Activity: 30%
[3]
  Activity: 90%
[4]
  Activity: 70%

## CCCCCC/C(=N/S(=O)(=O)c1ccc(C)cc1)N(CC)CC
[1]
  Activity: 97%
[2]
  Activity: 50%
[3]
  Activity: 90%
[4]
  Activity: 90%

## CCN(CC)/C(=N\S(=O)(=O)c1ccc(C)cc1)C1CCCCC1
[1]
  Activity: 30%

## CCCCCCC/C(=N/S(=O)(=O)c1ccc(C)cc1)N(CC)CC
[1]
  Activity: 90%
[2]
  Activity: 30%
[3]
  Activity: 90%
[4]
  Activity: 70%

## CCCCCCCC/C(=N/S(=O)(=O)c1ccc(C)cc1)N(CC)CC
[1]
  Activity: 70%

## CCCCCCCCC/C(=N/S(=O)(=O)c1ccc(C)cc1)N(CC)CC
[1]
  Activity: 50%

## CCCCCCCCCC/C(=N/S(=O)(=O)c1ccc(C)cc1)N(CC)CC
[1]
  Activity: 50%

## CCCCCCCCCCC/C(=N/S(=O)(=O)c1ccc(C)cc1)N(CC)CC
[1]
  Activity: 50%

## CCCCCCCCCCCCC/C(=N/S(=O)(=O)c1ccc(C)cc1)N(CC)CC
[1]
  Activity: 30%

## CCCCCCCCCCCCCCC/C(=N/S(=O)(=O)c1ccc(C)cc1)N(CC)CC
[1]
  Activity: 0%

## CCCCCC/C(=N/S(=O)(=O)c1ccc(C)cc1)N(CCC)CCC
[1]
  Activity: 50%

## CCCCCC/C(=N/S(=O)(=O)c1ccc(C)cc1)N(CCCC)CCCC
[1]
  Activity: 0%

## CCCCCC/C(=N/S(=O)(=O)c1ccc(C)cc1)N1CCCCC1
[1]
  Activity: 50%

## CCCCCC/C(=N/S(=O)(=O)c1ccc(C)cc1)N1CCCC1
[1]
  Activity: 30%

## CCCCCC/C(=N/S(=O)(=O)c1ccc(C)cc1)N1CCN(C)CC1
[1]
  Activity: 30%

## CCCCCC/C(=N/S(=O)(=O)c1ccc(C)cc1)N1CCOCC1
[1]
  Activity: 30%

## CCCCCC/C(=N/S(=O)(=O)c1ccc(Cl)cc1)N(CC)CC
[1]
  Activity: 30%

## CCCCCC/C(=N/S(=O)(=O)c1ccccc1Cl)N(CC)CC
[1]
  Activity: 0%

## CCCCCC/C(=N/S(=O)(=O)c1ccccc1)N(CC)CC
[1]
  Activity: 30%

## CC(C)OP(=O)(OC(C)C)SCc1ccccc1 [IPROBENFOS]
[1]
  Activity: 70%
[2]
  Activity: 0%
[3]
  Activity: 50%
[4]
  Activity: 30%
